This is an account of results in PubChem BioAssay (NCI).

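In this assay, cells in 96-well plates receive the compound at five concentrations for 48 hours. Endpoints are linearly interpolated between the surrounding concentrations. TGI marks complete inhibition of growth.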

What all share (test): inhibition of tumour cell growth, NCI panel, 48 h
The subject of test [1] is ACHN renal.
Test [2] deals with HCC-2998 colon.
The subject of test [3] is MDA-MB-231 breast.
Test [4] deals with SK-MEL-5 melanoma.
For test [5], the system named is BT-549 breast.
The test system of test [6] is MDA-N.
Test [7] concerns A498 renal.
The subject of test [8] is NCI-H23 lung.
Test [9] deals with RPMI-8226 leukemia.
In test [10] the test system is K-562 leukemia.
The test system of test [11] is SW-620 colon.

Take `CC(=O)c1cc2c(s1)C(=O)c1scc(C(C)=O)c1C2=O`: the TGI came out at 0.828 µM in [1]; 3.58 µM in [2]; 0.809 µM in test [3]; 1.53 µM in test [4]; 2.68 µM in test [5]; 0.358 µM in [6]. The TGI was found to be 4 µM in test [7], 1.72 µM in [8], 1.08 µM in test [9] and 3.54 µM in test [10].

For the compound `O=C(Nc1ccccc1)c1cc(S(=O)(=O)Nc2n[nH]c(=O)[nH]2)c(SSc2cc(Cl)c(C(=O)Nc3ccccc3)cc2S(=O)(=O)Nc2n[nH]c(=O)[nH]2)cc1Cl`, the TGI in [1], in test [2], in [3], in [4], in test [5] and in test [6] was over 100 µM each time. Also, the TGI in [7], in test [8], in [11], in [9] and in [10] was over 100 µM each time.

With `C/C=C1\CN2CCC34c5ccccc5N(C)C35OCC4(C(=O)OC)C1CC25` (configuration not stated), the TGI is over 100 µM in [1]; 29.1 µM in test [2]; over 100 µM in test [3]; 33.5 µM in test [4]; over 100 µM in test [5]; over 100 µM in [6]. Besides, the TGI in [7], in test [8], in test [11], in test [9] and in test [10] was over 100 µM in each case.

As to `O=c1c2ncn(C3CCCCO3)c2n(-c2ccccc2)c(=S)n1-c1ccccc1` (configuration not stated), the TGI was over 100 µM in test [1]; over 100 µM in test [2]; 73.5 µM in test [3]; over 100 µM in test [4]; 72.1 µM in test [5]; over 100 µM in test [6]. Further, the TGI was 89.6 µM in test [7]; 64.3 µM in test [8]; over 100 µM in test [11]; over 100 µM in [9]; over 100 µM in test [10].

On to `CC(=O)[C@H]1CC[C@H]2[C@@H]3CCC4=CC(=O)CC[C@]4(C)[C@H]3CC[C@]12C`, for which the TGI in test [1] was determined as 75.2 µM; in test [2], 31.4 µM; in test [3] it was 33.2 µM; in [4] it was 24.8 µM; in test [5], 32.1 µM; in [6], 35.9 µM. The TGI in test [7] was 67.1 µM; in [8] it was 35.7 µM; in [11], over 100 µM; in test [9] it was 26.3 µM; in test [10], 43.2 µM.

Take `OC12C3C4CC5C(C4[C@@H]1Br)C2[C@@](O)(c1c(F)c(F)c(F)c(F)c1F)C53` (some centres not stated): the TGI is over 100 µM in test [1]; over 100 µM in [2]; over 100 µM in test [3]; 59.3 µM in [4]; over 100 µM in test [5]; over 100 µM in [6]. Moreover, the TGI in [7] is over 100 µM; in test [8] it was over 100 µM; in [11] it was over 100 µM; in test [10] it was 61.5 µM.

Take `CC(C)(C)OC(=O)NC1CCCC1C(O)(C1=CCCC1)C1=CCCC1` (configuration not stated): the TGI in test [1], in [2], in test [3], in test [4], in test [5] and in test [6] was over 100 µM each time. In addition, the TGI in [7], in test [8], in [11] and in test [9] was over 100 µM each time.

Take `COc1ccc(OC)c(C(=O)/C=C/c2cc(O)c(O)cc2F)c1`: the TGI in test [1] was over 50.3 µM; in test [2], 1.98 µM; in test [3] it was 11.4 µM; in test [4], 12.4 µM; in [5] it was 19.6 µM; in test [6], 0.534 µM. The TGI in test [7] was 12.5 µM; in test [8], 10.4 µM; in [11], over 66.5 µM; in test [9], 7.83 µM; in [10] it was over 27.8 µM.

Take `O=S(=O)(O)c1ccc2c(N=Nc3ccccc3)c(O)c(S(=O)(=O)O)cc2c1`: the TGI in [1], in [2], in test [3], in [4], in [5] and in test [6] was over 100 µM in each case. The TGI in [7], in test [8], in test [11] and in test [10] was over 100 µM each time.

In the case of `O=C(O)CCC(C(=O)O)N1C(=O)c2ccccc2C1=O` (configuration not stated), the TGI in test [1], in test [2], in [3], in test [4], in [5] and in [6] was over 100 µM in each case. Also, the TGI in [7], in [8], in test [11], in [9] and in test [10] was over 100 µM throughout.

Take `c1ccc2c(c1)nc1n2CCNC1`: the TGI in test [1], in [2], in [3], in [4], in [5] and in [6] was over 100 µM each time. Also, the TGI in test [7], in test [8], in test [11], in [9] and in [10] was over 100 µM throughout.

`CCOC(=O)CN=C1Nc2ccccc2C(=O)N2CSCC12` (configuration not stated): the TGI in test [1], in test [2], in [3], in test [4], in test [5] and in test [6] was over 100 µM throughout. Also, the TGI in test [7], in test [11], in test [9] and in test [10] was over 100 µM in each case.
